The record followed here is patent US20110160147A1, “NOVEL DUAL TARGETING A[…]” (priority 2008, published 2011).

Structures are written as SMILES. Where two headings read alike, the source gives them in different places.

One series deals with αvβ5 receptors (Homo sapiens, UniProt P06756+P18084). The series is described as follows: Solid-phase binding assay, inhibition of [125I]Echistatin binding to αvβ5 receptors. As to the method:
The receptor binding assays were performed as described (Orlando R. A., et al., J. Biol. Chem. 1991, 266, 19543). αvβ3 and αvβ5 were diluted to 500 ng/ml and 1 μg/ml, respectively, in coating buffer (20 mM Tris, pH 7.4, 150 mM NaCl, 2 mM CaCl2, 1 mM MgCl2, 1 mM MnCl2) and an aliquot of 100 μL was added to a 96-well microtiter plate and incubated overnight at 4° C. The plate was washed once with blocking/binding buffer (50 mM Tris, pH 7.4, 100 mM NaCl, 2 mM CaCl2, 1 mM MgCl2, 1 mM MnCl2, 1% bovine serum albumin), and then was incubated for additional 2 h at RT The plate was rinsed twice with the same buffer and incubated for 3 h at RT with radiolabeled ligand [^125I]Echistatin (Amersham Pharmacia Biotech) 0.05 nM (0.1 nM for αv β5) in the presence of competing inhibitors. After the incubation, the wells were washed and radioactivity was determined with a gamma-counter (Packard). Non-specific binding of ligand was determined with molar excess (200 nM) of cold echistatin.
The IC50 values reported in Tables 1 and 2 were calculated as the concentrations of compounds required for 50% inhibition of echistatin binding and were estimated by the Prism GraphPad program. The Ki of the competing ligands were calculated according to the Cheng-Prusoff equation (Cheng Y. C., et al., Biochem. Pharmacol., 1973, 22, 3099). Values are the mean±log standard error of triplicate determinations from two independent experiments.

For series [1], the system named is A2780 ovarian carcinoma cells. The format is cell-based, human. Particulars: A2780, 1 h of treatment; read-out: IC50 ± SD, antiadhesive effect to vitronectin. As to the method:
(§1) A2780 human ovarian carcinoma and PC3 prostate carcinoma cells were grown in medium culture RPMI 1640 containing 10% fetal bovine serum and 50 μg/ml gentamycin sulfate. Cells were maintained in a 37° C. incubator with saturated humidity and an atmosphere of 95% air and 5% CO2. A2780 tumour cell line expresses high levels of αvβ5 integrin, and PC3 low levels of both integrins.
(§2) In 96-well tissue culture plates, 50 μl/well of a solution of vitronectin (5 μg/ml) were added for 2 h at room temperature. The solutions were removed upsetting the plates. 50 μl/well of a solution 1% BSA were added for 1 h at RT. The plates were washed by addition of 100 μl/well of medium culture RPMI 1640 without fetal calf serum (FCS). The washing was repeated twice. The molecules were added at different concentrations in the range between 0.039 μM and 20 μM. The solutions were prepared by dilution 1:2 in medium culture without FCS. Tumour cells in the flasks were washed in saline solution before to be detached by scraper, by the addition of 5 ml of medium culture without FCS and 1% BSA. Tumour cells were counted after resuspension and added at an appropriate cellular density (40000-50000 cells/well). The plates were incubated for 1 h at 37° C. in humidified incubator with 5% CO2. Then, the solutions were removed upsetting the plates and washed once with 200 μl/well of PBS with Ca^2+ e Mg^2+. Tumour cells were fixed with 100 μl of a solution 4% paraformaldehyde in 0.2 M Sorensen phosphate buffer pH 7.2-7.4 for 10 min at RT The plates were upset and 100 μl of 1% Toluidine Blu solution were added for 10 min at RT The plates were washed twice by immersion in bi-distilled water and then dried at 60° C. in thermostat incubator (Kottermann). 100 μl/well of 1% SDS were added. The plates were kept under stirring for 20 min at RT and were then evaluated by Victor 1420 multilabel counter (Wallac) at 600 nm.
(§3) The IC50 value as parameter to measure the inhibiting effect of the molecules on tumour cell adhesion to vitronectin was evaluated using “ALLFIT” computer program.

The subject of series [2] is PC3 prostate carcinoma cells. The format is cell-based, human. As to conditions: PC3, 1 h of treatment; read-out: IC50 ± SD, antiadhesive effect to vitronectin. As to the method:
as §1, §2, §3

Series [3] deals with PC3 prostate carcinoma cells. The series is described as follows: Cytotoxicity, sulphorodamine B test (PC3). It counts as cell-based, human. As to conditions: PC3, 72 h of treatment; read-out: IC50 ± SD, cytotoxicity. Here is the method: (§4) To evaluate the effect of the compound on survival cells, the sulphorodamine B test was used. To measure the effects of the compounds on cell growth, PC3 human prostate carcinoma and A2780 human ovarian carcinoma cells were used. A2780 and PC3 tumour cells were grown RPMI 1640 containing 10% fetal bovine serum (GIBCO).
(§5) Tumour cells were seeded in 96-well tissue culture plates at approximately 10% confluence and were allowed to attach and recover for at least 24 h. Varying concentrations of the drugs were then added to each well to calculate their IC50 value (the concentration which inhibits the 50% of cell survival). The plates were incubated at 37° C. for 72 h. At the end of the treatment, the plates were washed by removal of the supernatant and addition of PBS 3 times. 200 μl PBS and 50 μl of cold 80% trichloroacetic acid (TCA) were added. The plates were incubated on ice for at least 1 h. TCA was removed and the plates were washed 3 times by immersion in distilled-water and dried on paper and at 40° C. for 5 min. Then 200 μl of 0.4% sulphorodamine B in 1% acetic acid were added. The plates were incubated at RT for further 30 min. Sulphorodamine B was removed, the plates were washed by immersion in 1% acetic acid 3 times, then they were dried on paper and at 40° C. for 5 min. Then 200 μl Tris 10 mM were added, the plates were kept under stirring for 20 min. The cell survival was determined by means of optical density using a Multiskan spectrofluorimeter at 540 nm. The amount of cells killed was calculated as the percentage decrease in sulphorodamine B binding compared with control cultures.
(§6) The IC50 values were calculated with the “ALLFIT” program.

In series [4] the test system is A2780 ovarian carcinoma cells. In words: Cytotoxicity, sulphorodamine B test (A2780). Particulars: A2780, 72 h of treatment; read-out: IC50 ± SD, cytotoxicity. The format is cell-based, human. Here is the method: as §4, §5, §6
Series [5] has as its system PC3 prostate ca. xenografted in CD1 nude mice. The series is described as follows: Antimetastatic activity on bone metastases induced by intracardiac injection of PC3 human prostate carcinoma. It counts as in vivo. As to the method: Male CD1 nude mice were anesthetized by 4 ml/kg of a mixture (xylazine:ketavet 100) given i.p. PC3 tumour cells were inoculated by intracardiac injection (1×10^5 cells/0.1 ml/mouse) into the heart left ventricle of mice using a 27-gauge needle. Mice were subdivided (11 mice/group) in the following experimental groups and after three days from tumour injection the molecules were administered as described:
Vehicle (DMSO 10%) i.v. q4d×4.
To evaluate the antitumour activity of the drug, high-resolution total body radiological analysis was carried out by using Faxitron system. Radiological analysis was carried out 30 days after tumour injection. Body weight recordings were carried out through the study and mortality was noted.

αvβ5 receptors, sequence (P06756 31-889 limits assumed): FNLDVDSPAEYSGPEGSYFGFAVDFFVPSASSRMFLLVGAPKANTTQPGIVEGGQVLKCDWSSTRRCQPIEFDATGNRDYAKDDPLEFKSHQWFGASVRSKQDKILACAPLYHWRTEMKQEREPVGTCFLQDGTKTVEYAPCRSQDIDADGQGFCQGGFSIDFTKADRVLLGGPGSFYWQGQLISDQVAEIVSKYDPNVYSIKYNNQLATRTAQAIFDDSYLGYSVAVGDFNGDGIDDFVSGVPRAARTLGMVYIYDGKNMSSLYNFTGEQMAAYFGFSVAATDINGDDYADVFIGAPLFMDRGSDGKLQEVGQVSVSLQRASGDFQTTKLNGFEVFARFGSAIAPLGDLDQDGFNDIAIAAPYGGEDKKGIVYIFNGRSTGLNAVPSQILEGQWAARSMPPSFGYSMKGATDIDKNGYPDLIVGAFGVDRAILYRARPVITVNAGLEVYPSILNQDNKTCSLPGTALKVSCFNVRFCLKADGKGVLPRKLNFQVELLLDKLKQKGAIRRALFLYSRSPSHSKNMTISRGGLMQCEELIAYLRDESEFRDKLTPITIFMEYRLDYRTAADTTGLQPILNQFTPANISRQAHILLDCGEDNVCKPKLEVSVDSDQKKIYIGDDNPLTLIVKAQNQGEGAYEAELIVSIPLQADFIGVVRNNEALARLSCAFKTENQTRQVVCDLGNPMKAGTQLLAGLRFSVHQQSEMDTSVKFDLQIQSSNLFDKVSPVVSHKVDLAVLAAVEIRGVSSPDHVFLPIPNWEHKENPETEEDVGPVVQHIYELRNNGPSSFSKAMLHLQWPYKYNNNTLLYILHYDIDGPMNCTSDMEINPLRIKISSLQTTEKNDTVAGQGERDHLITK
αvβ5 receptors, sequence (P06756 891-1048 partner limits assumed): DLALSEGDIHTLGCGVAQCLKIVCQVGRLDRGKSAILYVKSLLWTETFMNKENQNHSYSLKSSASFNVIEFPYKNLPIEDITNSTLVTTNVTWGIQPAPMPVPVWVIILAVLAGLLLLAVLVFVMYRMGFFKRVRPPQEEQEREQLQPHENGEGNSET
αvβ5 receptors, sequence (P18084 24-799): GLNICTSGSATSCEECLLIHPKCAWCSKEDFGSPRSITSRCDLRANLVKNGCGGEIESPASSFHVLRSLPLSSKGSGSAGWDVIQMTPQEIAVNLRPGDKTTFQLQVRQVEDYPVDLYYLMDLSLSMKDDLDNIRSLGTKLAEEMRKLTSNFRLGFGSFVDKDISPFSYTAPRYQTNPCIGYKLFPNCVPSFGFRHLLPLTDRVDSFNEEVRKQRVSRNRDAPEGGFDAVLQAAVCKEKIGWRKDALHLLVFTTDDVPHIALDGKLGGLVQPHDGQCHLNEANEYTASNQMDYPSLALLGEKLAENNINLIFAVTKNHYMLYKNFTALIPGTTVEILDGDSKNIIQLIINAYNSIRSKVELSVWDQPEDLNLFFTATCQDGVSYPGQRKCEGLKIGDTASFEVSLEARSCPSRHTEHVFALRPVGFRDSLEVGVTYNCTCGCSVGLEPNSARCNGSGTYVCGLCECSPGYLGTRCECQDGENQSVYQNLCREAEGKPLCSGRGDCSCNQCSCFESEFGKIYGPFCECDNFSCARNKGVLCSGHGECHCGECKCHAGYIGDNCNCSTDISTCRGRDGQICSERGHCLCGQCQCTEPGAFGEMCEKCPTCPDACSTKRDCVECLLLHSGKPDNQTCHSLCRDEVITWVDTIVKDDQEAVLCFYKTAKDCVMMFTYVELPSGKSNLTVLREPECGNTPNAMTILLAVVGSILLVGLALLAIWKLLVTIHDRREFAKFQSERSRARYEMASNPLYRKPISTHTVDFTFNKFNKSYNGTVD

For `CC[C@@]1(O)C(=O)OCc2c1cc1n(c2=O)Cc2c-1nc1ccccc1c2C=NOCCNC(=O)OCc1ccc(NC(=O)[C@H](CCCNC(N)=O)NC(=O)[C@H](C)NC(=O)COCCOCCOCC(=O)NCc2ccc(C[C@@H]3NC(=O)[C@@H](Cc4ccccc4)NC(=O)[C@H](CC(=O)O)NC(=O)CNC(=O)[C@H](CCCNC(=N)N)NC3=O)cc2)cc1` [ST3833], the IC50 on αvβ5 receptors is 87.8 ± 1.21 nM; in series [1], 900 ± 50 nM; in series [2], 2100 ± 200 nM; in series [3], 4600 ± 800 nM; in series [4] it was 95 ± 20 nM. Also, at αvβ5 receptors, the Ki turned out to be 68.2 nM. The “BWL % (maximum body weight loss)” value in series [5] (56 mg/10 ml/kg i.v. q4dx4) came to 0%. For the same compound, in series [5] (56 mg/10 ml/kg i.v. q4dx4), the “Lethal toxicity (dead/treated animals)” value is 0/11. For the same compound, the “MST (median survival time)” value in series [5] (56 mg/10 ml/kg i.v. q4dx4) came to 58 days. Also, the “Incidence of osteolytic lesions (mice with metastases)” value in series [5] (56 mg/10 ml/kg i.v. q4dx4, 30 days after tumour injection) is on record as 5/11. The tolerability result in series [5] (56 mg/kg iv (q4dx4), no reduction of body weight or lethal toxicity) is recorded as “well tolerated”. Moreover, in series [5] (56 mg/kg iv q4dx4, vehicle-treated group 91%), the “incidence of osteolytic lesions, % of mice” value came out at 45%.

The IC50 is the concentration needed to halve the response being measured. As a reminder, the Ki is the dissociation constant of the complex between target and ligand, obtained from inhibition or displacement. Read a high Ki as lower affinity.
